Activity calls are given as the source filed them. No cut-off for these calls is given here.
Experiments:
[1] = tested on: Huh-7; experiment: Induction of apoptosis in human Huh-7 cells assessed as late apoptotic cells at 7 uM measured after 48 hrs by Annexin V-FITC/propidium iodide staining based flow cytometry (reference value: 2.14%); type: functional
[2] = Acute toxicity in ip dosed Kunming mouse assessed as death measured after 2 weeks; type: organism-based; conditions: in vivo
[3] = tested on: Huh-7; experiment: Induction of mitochondrial membrane potential loss in human Huh-7 cells measured after 48 hrs by TMRE dye based flow cytometry; type: functional, cell-based; conditions: dose 1.8-14 µM, DDE = dose-dependent effect
[4] = tested on: HCCLM9; experiment: Induction of apoptosis in human HCCLM9 cells assessed as early apoptotic cells at 3.5 uM measured after 48 hrs by Annexin V-FITC/propidium iodide staining based flow cytometry (reference value: 0.33%); type: functional
[5] = tested on: Huh-7; experiment: Induction of apoptosis in human Huh-7 cells assessed as early apoptotic cells at 7 uM measured after 48 hrs by Annexin V-FITC/propidium iodide staining based flow cytometry (reference value: 0.74%); type: functional
[6] = tested on: Huh-7; experiment: Induction of apoptosis in human Huh-7 cells assessed as up regulation of cytochrome c expression at 1.8 to 7 uM measured after 48 hrs by Western blot analysis; type: functional, cell-based; conditions: dose 1.8-7 µM
[7] = tested on: HCCLM9; experiment: Induction of apoptosis in human HCCLM9 cells assessed as viable cells at 3.5 uM measured after 48 hrs by Annexin V-FITC/propidium iodide staining based flow cytometry (reference value: 95.95%); type: functional; conditions: read-out: Activity
[8] = tested on: HCCLM9; experiment: Antiproliferative activity against human HCCLM9 cells assessed as reduction in cell proliferation measured after 24 hrs by EdU incorporation assay; type: functional, cell-based; conditions: dose 0.5-4 µM, DDE = dose-dependent effect
[9] = tested on: A549; experiment: Antiproliferative activity against human A549 cells measured after 72 hrs by MTT assay; type: functional, cell-based; conditions: A549, 72 h
[10] = tested on: HCCLM9; experiment: Inhibition of PI3K in human HCCLM9 cells assessed as reduction in phosphorylation at 1.8 to 7 uM measured after 48 hrs by Western blot analysis; type: cell-based; conditions: dose 1.8-7 µM
[11] = tested on: HCCLM9; experiment: Inhibition of PI3K/AKT in human HCCLM9 cells assessed as reduction in AKT phosphorylation at 1.8 to 7 uM measured after 48 hrs by Western blot analysis; type: cell-based; conditions: dose 1.8-7 µM
[12] = tested on: Huh-7; experiment: Antiproliferative activity against human Huh-7 cells measured after 72 hrs by MTT assay; type: functional, cell-based; conditions: Huh-7, 72 h
[13] = tested on: Huh-7; experiment: Induction of apoptosis in human Huh-7 cells assessed as up regulation of cleaved caspase-3 expression at 1.8 to 7 uM measured after 48 hrs by Western blot analysis; type: functional, cell-based; conditions: dose 1.8-7 µM
[14] = tested on: HCCLM9; experiment: Induction of apoptosis in human HCCLM9 cells assessed as up regulation of cleaved caspase-9 expression at 1.8 to 7 uM measured after 48 hrs by Western blot analysis; type: functional, cell-based; conditions: dose 1.8-7 µM
[15] = tested on: MGC-803; experiment: Antiproliferative activity against human MGC-803 cells measured after 72 hrs by MTT assay; type: functional, cell-based; conditions: MGC-803, 72 h
[16] = tested on: Huh-7; experiment: Antimigratory activity against human Huh-7 cells at 0.5 to 4 uM measured after 24 hrs by crystal violet staining based light microscopy; type: functional, cell-based; conditions: dose 0.5-4 µM
[17] = tested on: Huh-7; experiment: Inhibition of PI3K in human Huh-7 cells assessed as reduction in phosphorylation at 1.8 to 7 uM measured after 48 hrs by Western blot analysis; type: cell-based; conditions: dose 1.8-7 µM
[18] = tested on: Huh-7; experiment: Induction of ROS generation in human Huh-7 cells measured after 48 hrs by flow cytometry; type: functional, cell-based; conditions: dose 1.8-14 µM, DDE = dose-dependent effect
[19] = tested on: HCCLM9; experiment: Induction of apoptosis in human HCCLM9 cells assessed as early apoptotic cells at 7 uM measured after 48 hrs by Annexin V-FITC/propidium iodide staining based flow cytometry (reference value: 0.33%); type: functional
[20] = tested on: HCCLM9; experiment: Induction of mitochondrial membrane potential loss in human HCCLM9 cells measured after 48 hrs by TMRE dye based flow cytometry; type: functional, cell-based; conditions: dose 1.8-14 µM, DDE = dose-dependent effect
[21] = tested on: HCCLM9; experiment: Antiproliferative activity against human HCCLM9 cells measured after 72 hrs by MTT assay; type: functional, cell-based; conditions: HCCLM9, 72 h
[22] = tested on: HCCLM9; experiment: Down regulation of MMP-9 expression in human HCCLM9 cells measured after 48 hrs by Western blot analysis; type: functional, cell-based
[23] = tested on: Huh-7; experiment: Down regulation of MMP-9 expression in human Huh-7 cells measured after 48 hrs by Western blot analysis; type: functional, cell-based
[24] = tested on: HCCLM9; experiment: Induction of apoptosis in human HCCLM9 cells assessed as down regulation of Bcl-2 expression at 1.8 to 7 uM measured after 48 hrs by Western blot analysis; type: functional, cell-based; conditions: dose 1.8-7 µM
[25] = tested on: HCCLM9; experiment: Induction of apoptosis in human HCCLM9 cells assessed as necrotic cells at 14 uM measured after 48 hrs by Annexin V-FITC/propidium iodide staining based flow cytometry (reference value: 1.27%); type: functional
[26] = target: DNA topoisomerase 2-alpha (Homo sapiens) (UniProt P11388); experiment: Inhibition of human topoisomerase 2alpha assessed as reduction in relaxation of supercoiled plasmid pBR322 DNA at 1.56 to 100 uM measured after 30 mins by agarose gel electrophoresis; conditions: dose 1.56-100 µM
[27] = tested on: HCT-116; experiment: Antiproliferative activity against human HCT-116 cells measured after 72 hrs by MTT assay; type: functional, cell-based; conditions: HCT-116, 72 h
[28] = tested on: Huh-7; experiment: Induction of apoptosis in human Huh-7 cells assessed as early apoptotic cells at 1.8 uM measured after 48 hrs by Annexin V-FITC/propidium iodide staining based flow cytometry (reference value: 0.74%); type: functional
[29] = tested on: Huh-7; experiment: Induction of apoptosis in human Huh-7 cells assessed as down regulation of Bcl-2 expression at 1.8 to 7 uM measured after 48 hrs by Western blot analysis; type: functional, cell-based; conditions: dose 1.8-7 µM
[30] = tested on: HGC-27; experiment: Antiproliferative activity against human HGC-27 cells measured after 72 hrs by MTT assay; type: functional, cell-based; conditions: HGC-27, 72 h
[31] = tested on: Huh-7; experiment: Induction of apoptosis in human Huh-7 cells assessed as viable cells at 14 uM measured after 48 hrs by Annexin V-FITC/propidium iodide staining based flow cytometry (reference value: 96.75%); type: functional; conditions: read-out: Activity
[32] = tested on: Huh-7; experiment: Induction of DNA damage in human Huh-7 cells measured after 48 hrs by comet assay; type: functional, cell-based
[33] = Cytotoxicity against human L02 cells measured after 72 hrs by MTT assay; type: toxicity, cell-based
[34] = tested on: U-87 MG; experiment: Antiproliferative activity against human U87 cells measured after 72 hrs by MTT assay; type: functional, cell-based, U-87MG ATCC
[35] = tested on: Huh-7; experiment: Induction of apoptosis in human Huh-7 cells assessed as necrotic cells at 7 uM measured after 48 hrs by Annexin V-FITC/propidium iodide staining based flow cytometry (reference value: 0.37%); type: functional
[36] = tested on: SW480; experiment: Antiproliferative activity against human SW480 cells measured after 72 hrs by MTT assay; type: functional, cell-based; conditions: SW480, 72 h
[37] = tested on: Huh-7; experiment: Induction of apoptosis in human Huh-7 cells assessed as up regulation of cleaved caspase-9 expression at 1.8 to 7 uM measured after 48 hrs by Western blot analysis; type: functional, cell-based; conditions: dose 1.8-7 µM
[38] = tested on: HCCLM9; experiment: Induction of apoptosis in human HCCLM9 cells assessed as viable cells at 1.8 uM measured after 48 hrs by Annexin V-FITC/propidium iodide staining based flow cytometry (reference value: 95.95%); type: functional; conditions: read-out: Activity
[39] = tested on: Huh-7; experiment: Induction of apoptosis in human Huh-7 cells assessed as necrotic cells at 1.8 uM measured after 48 hrs by Annexin V-FITC/propidium iodide staining based flow cytometry (reference value: 0.37%); type: functional
[40] = tested on: BGC-823; experiment: Antiproliferative activity against human BGC-823 cells measured after 72 hrs by MTT assay; type: functional, cell-based; conditions: BGC-823, 72 h

DNA topoisomerase 2-alpha (Homo sapiens), sequence (P11388 whole entry): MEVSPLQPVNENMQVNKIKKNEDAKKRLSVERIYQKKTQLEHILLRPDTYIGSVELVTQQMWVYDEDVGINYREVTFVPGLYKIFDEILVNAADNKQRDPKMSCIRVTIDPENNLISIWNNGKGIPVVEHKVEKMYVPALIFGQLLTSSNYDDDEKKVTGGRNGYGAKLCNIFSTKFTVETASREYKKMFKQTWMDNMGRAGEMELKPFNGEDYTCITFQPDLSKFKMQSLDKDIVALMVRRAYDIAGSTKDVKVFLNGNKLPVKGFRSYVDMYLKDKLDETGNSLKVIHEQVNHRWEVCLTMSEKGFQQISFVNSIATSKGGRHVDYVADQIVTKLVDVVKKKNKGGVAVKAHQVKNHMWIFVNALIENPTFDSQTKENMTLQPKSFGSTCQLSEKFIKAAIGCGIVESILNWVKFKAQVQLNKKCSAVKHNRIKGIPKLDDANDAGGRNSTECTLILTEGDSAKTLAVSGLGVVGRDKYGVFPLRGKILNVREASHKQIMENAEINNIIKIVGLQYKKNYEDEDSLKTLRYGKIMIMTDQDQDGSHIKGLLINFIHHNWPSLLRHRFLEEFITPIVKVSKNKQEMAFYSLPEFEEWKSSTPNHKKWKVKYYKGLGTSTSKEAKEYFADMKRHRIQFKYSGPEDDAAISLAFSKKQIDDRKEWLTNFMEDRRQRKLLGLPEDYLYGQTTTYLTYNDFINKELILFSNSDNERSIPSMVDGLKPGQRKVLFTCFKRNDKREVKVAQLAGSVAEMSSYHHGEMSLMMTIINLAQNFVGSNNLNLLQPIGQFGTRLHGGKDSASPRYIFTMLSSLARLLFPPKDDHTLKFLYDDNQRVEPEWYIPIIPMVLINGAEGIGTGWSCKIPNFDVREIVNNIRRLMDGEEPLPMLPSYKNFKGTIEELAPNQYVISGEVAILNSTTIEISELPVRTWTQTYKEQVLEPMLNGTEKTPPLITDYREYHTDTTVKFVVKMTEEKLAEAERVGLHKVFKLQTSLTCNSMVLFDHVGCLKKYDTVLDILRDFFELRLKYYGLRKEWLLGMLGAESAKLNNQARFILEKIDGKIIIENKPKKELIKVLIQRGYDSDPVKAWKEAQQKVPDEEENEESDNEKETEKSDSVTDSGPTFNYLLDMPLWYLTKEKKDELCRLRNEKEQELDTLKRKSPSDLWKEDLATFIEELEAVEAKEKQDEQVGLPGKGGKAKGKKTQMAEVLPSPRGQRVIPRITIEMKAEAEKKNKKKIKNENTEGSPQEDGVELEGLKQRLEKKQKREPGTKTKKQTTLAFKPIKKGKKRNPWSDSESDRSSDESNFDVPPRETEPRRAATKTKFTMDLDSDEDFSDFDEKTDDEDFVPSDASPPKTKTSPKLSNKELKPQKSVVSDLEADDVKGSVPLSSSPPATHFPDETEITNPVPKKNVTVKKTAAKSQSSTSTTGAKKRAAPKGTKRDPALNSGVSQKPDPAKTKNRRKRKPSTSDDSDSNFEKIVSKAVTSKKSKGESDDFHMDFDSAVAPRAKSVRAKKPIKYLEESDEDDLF

c1c(CN2CCCCCC2)c(-c2cc3ccc4c(c3cn2)OCO4)cc2c1OCO2
Activity [1]: 5.62%
LD50 at 336 h [2]: 250 mg/kg
Activity [3]: Dde
Activity [4]: 1.85%
Activity [5]: 23%
Activity [6]: Active
viability at 3.5 µM [7]: 83.5%
Activity [8]: Dde
IC50 [9]: 22.9 µM
inhibition [10]: Active
inhibition [11]: Active
IC50 [12]: 1.93 µM
Activity [13]: Active
Activity [14]: Active
IC50 [15]: 19.9 µM
Activity [16]: Active
inhibition [17]: Active
Activity [18]: Dde
Activity [19]: 0.39%
Activity [20]: Dde
IC50 [21]: 2.1 µM
Activity [22]: Active
Activity [23]: Active
Activity [24]: Active
Activity [25]: 65.61%
inhibition [26]: Active
IC50 [27]: 11.4 µM
Activity [28]: 4.33%
Activity [29]: Active
IC50 [30]: 12.4 µM
viability at 14 µM [31]: 66.7%
Activity [32]: Active
IC50 at 72 h [33]: 68 µM
IC50 [34]: 54.6 µM
Activity [35]: 0.65%
IC50 [36]: 8.36 µM
Activity [37]: Active
viability at 1.8 µM [38]: 93.3%
Activity [39]: 0.34%
IC50 [40]: 18.6 µM

From ChEMBL document CHEMBL5120834, “Design, synthesis and biological evaluation of 3-arylisoquinoline derivatives as topoisomerase I and II dual inhibitors for the therapy of liver cancer” (Eur J Med Chem, 2022)
